This note sets out measurements from patent US20260297042A1, “BIARYLAMIDE DERIVATIVES AND THEIR USE AS PKMYT1 INHIBITORS” (CANCER RESEARCH TECHNOLOGY LIMITED, priority 2023, published 2026).

As usually defined, the IC50 is the concentration needed to halve the response being measured. The low end stands for higher potency, the high end for lower potency.

Where only a bound is given, the exact number is not on record here.

Assay [1] has as its system OVCAR 3 cells. Nature of the assay: Cancer cell line proliferation assay, ATP-based cell viability (Cell Titre Glow), OVCAR 3 (CCNE1-amplified). Conditions: KYSE30 (normal CCNE1) GI50 vs. OVCAR 3 (CCNE1-amplified) GI50. The procedure, abridged: (§1)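 CellTiter-Glo luminescence endpoint; PKMYT1 inhibitor exposure; GI50 = conc. for 50% growth inhibition, curve-fitted.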
The target in assay [2] is T1, WEE1 (Homo sapiens, UniProt P30291).
T1 construct: purchased Thermo Fisher PR7373A
Nature of the assay: Selectivity versus WEE1 assay (ADP-Glo enzymatic assay). To be noted: banded; for IC50: ADP-Glo, 15 nM WEE1, 60 minutes at 26° C.; for PKMYT1 vs. WEE1 selectivity: fold difference in selectivity for PKMYT1 over WEE1, ">N" = at least in this band but could be higher. Type of assay: biochemical. The method, boiled down: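 ADP-Glo luminescent read-out after a 60-min, 26 °C kinase reaction of 15 nM WEE1 with 30 µM ATP, in HEPES pH 7.5 buffer containing MgCl2, EGTA, Brij-35 and 1% DMSO. IC50 accepted only when replicate values agree within 3-fold and curve fit r2 exceeds 0.9.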
(In general: ADP-Glo first removes unused ATP, then detects ADP through luciferase.)

Assay [3] has as its target T2, Cellular PKMYT1 Biomarker CDK1 pT14 (Homo sapiens, UniProt Q99640).
T2 construct: read-out CDK1 phospho-T14 immunoblot
T2 sequence (Q99640 1-499): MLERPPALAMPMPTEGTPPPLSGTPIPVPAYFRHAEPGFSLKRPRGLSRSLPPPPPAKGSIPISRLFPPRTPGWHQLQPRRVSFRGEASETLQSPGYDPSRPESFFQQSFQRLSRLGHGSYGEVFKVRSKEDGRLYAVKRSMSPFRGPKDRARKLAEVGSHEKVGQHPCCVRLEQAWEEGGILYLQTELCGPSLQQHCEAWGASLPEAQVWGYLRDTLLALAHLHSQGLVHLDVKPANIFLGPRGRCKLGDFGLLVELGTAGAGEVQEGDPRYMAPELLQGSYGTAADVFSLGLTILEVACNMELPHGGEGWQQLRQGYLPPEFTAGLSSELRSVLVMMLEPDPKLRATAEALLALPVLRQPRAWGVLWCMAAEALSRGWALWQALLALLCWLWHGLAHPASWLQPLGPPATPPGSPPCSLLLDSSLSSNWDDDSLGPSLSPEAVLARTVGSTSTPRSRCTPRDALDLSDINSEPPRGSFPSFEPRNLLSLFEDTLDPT
The experiment in a line: Inhibition of cellular PKMYT1 biomarker CDK1 pT14 in OVCAR 3 cells (immunoblot). Type of assay: cell-based. To be noted: 20 hours incubation. The method, boiled down: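 Confluent OVCAR 3 cells treated with a compound concentration range for 20 h at 37 °C. Lysates analysed by automated capillary immunoblot for CDK1 phospho-T14, with vinculin, fluorescence detection; IC50 by regression.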
Background: In western blotting, separated proteins are transferred to a membrane and probed.

The subject of assay [4] is KYSE-30 cells. Nature of the assay: Cancer cell line proliferation assay, ATP-based cell viability (Cell Titre Glow), KYSE-30 (normal CCNE1). To be noted: Homo sapiens, KYSE-30 cells (normal CCNE1), concentration that achieves 50% cell growth proliferation inhibition, read-out: KYSE30 Gl50. The procedure, abridged:
as §1

Assay [5] deals with T3, Human PKMYT1 (Homo sapiens, UniProt Q99640).
T3 construct: Human PKMYT1 75-362 was cloned as a TEV cleavable 6xHis fusion; 6xHis (TEV cleavable) (cleaved yes); made in house; host or cells: bacterial cells
T3 sequence (Q99640 75-362): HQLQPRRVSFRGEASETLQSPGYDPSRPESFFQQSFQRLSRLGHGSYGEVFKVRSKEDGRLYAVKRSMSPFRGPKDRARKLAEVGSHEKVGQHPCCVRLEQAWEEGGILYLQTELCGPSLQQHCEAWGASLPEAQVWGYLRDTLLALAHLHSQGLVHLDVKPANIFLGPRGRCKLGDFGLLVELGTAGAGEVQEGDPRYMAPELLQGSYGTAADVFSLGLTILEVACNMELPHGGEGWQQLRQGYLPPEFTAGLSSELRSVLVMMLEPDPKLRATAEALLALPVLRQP
The experiment in a line: PKMYT1 biochemical ADP-Glo enzymatic assay. To be noted: ADP-Glo; 15 nM PKMYT1 kinase domain, 500 µM ATP, 60 minutes at 26° C.; banded. The procedure, abridged: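 IC50 values come from 10-point 3-fold series, with replicates required within 3-fold and r2 >0.9. ADP formed by PKMYT1 intrinsic ATPase (500 uM ATP, 60 min, 26° C.) was quantified by ADP-Glo luminescence. The enzyme was the TEV-cleaved kinase domain 75-362 at 15 nM, in HEPES pH 7.5 buffer.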

T1 sequence (P30291 whole entry): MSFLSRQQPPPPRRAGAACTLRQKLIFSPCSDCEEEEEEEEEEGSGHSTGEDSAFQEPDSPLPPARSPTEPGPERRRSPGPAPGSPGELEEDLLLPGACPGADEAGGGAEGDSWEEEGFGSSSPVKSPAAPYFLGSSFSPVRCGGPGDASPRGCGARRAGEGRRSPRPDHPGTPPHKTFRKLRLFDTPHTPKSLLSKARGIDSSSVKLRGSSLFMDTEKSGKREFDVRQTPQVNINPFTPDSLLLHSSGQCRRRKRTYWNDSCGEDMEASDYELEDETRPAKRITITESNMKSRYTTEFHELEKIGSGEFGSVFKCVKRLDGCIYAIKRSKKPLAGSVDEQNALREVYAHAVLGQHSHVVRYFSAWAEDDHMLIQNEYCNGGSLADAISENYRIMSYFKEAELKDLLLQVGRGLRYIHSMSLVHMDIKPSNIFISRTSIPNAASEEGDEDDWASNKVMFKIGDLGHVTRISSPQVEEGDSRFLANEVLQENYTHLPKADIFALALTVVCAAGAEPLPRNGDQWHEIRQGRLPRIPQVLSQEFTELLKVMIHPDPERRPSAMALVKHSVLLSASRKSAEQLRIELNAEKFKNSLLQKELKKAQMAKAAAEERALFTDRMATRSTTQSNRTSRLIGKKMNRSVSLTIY

Consider `Cc1ccc(O)c(C)c1NC(=O)c1cnc(Nc2cccc(N3CCC(NC(=O)OC(C)(C)C)CC3)n2)s1` [BAA-327, tert-butyl(1-(6-((5-((3-hydroxy-2,6-dimethylphenyl)carbamoyl)thiazol-2-yl)amino)pyridin-2-yl)piperidin-4-yl)carbamate], for which the “Selectivity ratio KYSE30 Gl50 vs. OVCAR3 Gl50” value in assay [1] is reported as “Y (>20 fold)”. Further, the IC50 in assay [2] is more than 11000 nM; in assay [3] it was 100 to 1000 nM; in assay [5], 50 to 1000 nM. For the same compound, the “PKMYT1 vs. WEE1 selectivity” value in assay [2] is listed as “X (100-<1000 fold)”. In addition, in assay [4], the GI50 lay within 500 to 5000 nM.

On to `Cc1ccc(NC(=O)c2ccc(C(F)(F)F)cc2)nc1Nc1ncc(C(=O)Nc2c(C)ccc(O)c2C)s1` [BAA-328, N-(3-Hydroxy-2,6-dimethylphenyl)-2-((3-methyl-6-(4-(trifluoromethyl)benzamido)pyridin-2-yl)amino)thiazole-5-carboxamide], for which the “Selectivity ratio KYSE30 Gl50 vs. OVCAR3 Gl50” value in assay [1] is “Y (>20 fold)”. Besides, the IC50 in assay [2] is more than 11000 nM; in assay [3], less than 100 nM; in assay [5] it was 50 to 1000 nM. Besides, the “PKMYT1 vs. WEE1 selectivity” value in assay [2] is given as “X (100-<1000 fold)”. For the same compound, the GI50 in assay [4] was more than 5000 nM.

On to `Cc1ccc(NC(=O)C2CCOCC2)nc1Nc1ncc(C(=O)Nc2c(C)ccc(O)c2C)s1.Cl` [BAA-331, N-(3-hydroxy-2,6-dimethylphenyl)-2-((3-methyl-6-(tetrahydro-2H-pyran-4-carboxamido)pyridin-2-yl)amino)thiazole-5-carboxamide hydrochloride], for which the “Selectivity ratio KYSE30 Gl50 vs. OVCAR3 Gl50” value in assay [1] is on record as “Y (>20 fold)”. The IC50 in assay [2] is more than 11000 nM; in assay [3], less than 100 nM; in assay [5], less than 50 nM. In addition, the “PKMYT1 vs. WEE1 selectivity” value in assay [2] is reported as “Y (1000-5000 fold)”. The GI50 in assay [4] lay in the range of 500 to 5000 nM.

Turning to `Cc1ccc(NC(=O)C(C)C)nc1Nc1ncc(C(=O)Nc2c(C)ccc(O)c2C)s1.Cl` [BAA-332, N-(3-hydroxy-2,6-dimethylphenyl)-2-((6-isobutyramido-3-methylpyridin-2-yl)amino)thiazole-5-carboxamide hydrochloride], the “Selectivity ratio KYSE30 Gl50 vs. OVCAR3 Gl50” value in assay [1] was “Y (>20 fold)”. For the same compound, the IC50 was more than 11000 nM in assay [2], less than 100 nM in assay [3] and less than 50 nM in assay [5]. The “PKMYT1 vs. WEE1 selectivity” value in assay [2] is given as “X (100-<1000 fold)”. In assay [4], the GI50 fell in the range of 500 to 5000 nM.

For `Cc1ccc(O)c(C)c1NC(=O)c1cnc(Nc2nc(NC(=O)C(C)(C)C)ccc2Cl)s1.Cl` [BAA-333, 2-((3-chloro-6-pivalamidopyridin-2-yl)amino)-N-(3-hydroxy-2,6-dimethylphenyl)thiazole-5-carboxamide hydrochloride], the “Selectivity ratio KYSE30 Gl50 vs. OVCAR3 Gl50” value in assay [1] is listed as “Y (>20 fold)”. Further, the IC50 in assay [2] was more than 11000 nM; in assay [3], less than 100 nM; in assay [5] it was 50 to 1000 nM. Further, the “PKMYT1 vs. WEE1 selectivity” value in assay [2] is “Y (1000-5000 fold)”. Further, in assay [4], the GI50 was more than 5000 nM.

For the compound `Cc1ccc(O)c(C)c1NC(=O)c1cnc(Nc2cc(Cl)cc(NC(=O)C(C)(C)C)n2)s1.Cl` [BAA-334, 2-((4-chloro-6-pivalamidopyridin-2-yl)amino)-N-(3-hydroxy-2,6-dimethylphenyl)thiazole-5-carboxamide hydrochloride], the “Selectivity ratio KYSE30 Gl50 vs. OVCAR3 Gl50” value in assay [1] is given as “Y (>20 fold)”. For the same compound, the IC50 was more than 11000 nM in assay [2], less than 100 nM in assay [3] and 50 to 1000 nM in assay [5]. Moreover, the “PKMYT1 vs. WEE1 selectivity” value in assay [2] was “X (100-<1000 fold)”. In assay [4], the GI50 fell in the range of 500 to 5000 nM.

In the case of `Cc1ccc(N)nc1Nc1ncc(C(=O)Nc2c(C)ccc(O)c2C)s1` [BAA-337, 2-((6-amino-3-methylpyridin-2-yl)amino)-N-(3-hydroxy-2,6-dimethylphenyl)thiazole-5-carboxamide], the “Selectivity ratio KYSE30 Gl50 vs. OVCAR3 Gl50” value in assay [1] is “Y (>20 fold)”. Also, the IC50 was 1000 to 11000 nM in assay [2], less than 100 nM in assay [3] and less than 50 nM in assay [5]. Further, in assay [2], the “PKMYT1 vs. WEE1 selectivity” value is “X (100-<1000 fold)”. The GI50 in assay [4] lay within 500 to 5000 nM.
